Source: US20020026052A1, “3-cyanoquinolines, 3-cyano-1,6-naphthyridines, and 3-cyano-1,7-naphthyridines as protein kinase inhibitors” (American Home Products Corporation, priority 2000, published 2002)

Row | SMILES | melting point
1 | CC(C)N1CCN(Cc2ccc(-c3ccc4c(Nc5ccc(Sc6nccn6C)c(Cl)c5)c(C#N)cnc4c3)cc2)CC1 [Example 98, 4-({3-Chloro-4-[(1-methyl-1H-imidazol-2-yl)sulfanyl]phenyl}amino)-7-{4-[(4-isopropyl-1-piperazinyl)methyl]phenyl}-3-quinolinecarbonitrile] | 193 to 195 °C
2 | Cn1ccnc1Sc1ccc(Nc2c(C#N)cnc3cc(-c4ncccc4CN4CCOCC4)ccc23)cc1Cl [Example 207, 4-({3-Chloro-4-[(1-methyl-1H-imidazol-2-yl)sulfanyl]phenyl}amino)-7-[3-(4-morpholinylmethyl)-2-pyridinyl]-3-quinolinecarbonitrile] | 195 °C (dec.)
3 | N#Cc1cnc2cc(-c3ccc(CN4CCOCC4)cn3)ccc2c1Nc1ccc(Oc2ccccc2)cc1 [Example 56, 7-[5-(4-Morpholinylmethyl)-2-pyridinyl]-4-(4-phenoxyanilino)-3-quinolinecarbonitrile] | 219 to 221 °C
4 | Cn1ccnc1Sc1ccc(Nc2c(C#N)cnc3cc(-c4ccc(CN5CCN(CCO)CC5)o4)ccc23)cc1Cl [Example 157, 4-{3-Chloro-4-[(1-methyl-1H-irnidazol-2-yl)sulfanyl]anilino}-7-(5-{[4-(2-hydroxyethyl)-1-piperazinyl]methyl}-2-furyl)-3-quinolinecarbonitrile] | 206 to 209 °C
5 | COc1cc(Nc2c(C#N)cnc3cc(-c4cnc(C=O)n4C)ccc23)c(Cl)cc1Cl [Example 96, 4-(2,4-Dichloro-5-methoxyanilino)-7-(2-formyl-1-methyl-1H-imidazol-5-yl)-3-quinolinecarbonitrile] | 186 to 189 °C
6 | CN1CCN(Cc2cccc(-c3ccc4c(Nc5ccc(Sc6nccn6C)c(Cl)c5)c(C#N)cnc4c3)n2)CC1 [Example 202, 4-{3-Chloro-4-[(1-methyl-1H-imidazol-2-yl)sulfanyl]anilino}-7-{6-[(4-methyl-1-piperazinyl)methyl]-2-pyridinyl}-3-quinolinecarbonitrile] | 157 to 159 °C
7 | CN1CCN(Cc2ccnc(-c3ccc4c(Nc5ccc(Sc6nccn6C)c(Cl)c5)c(C#N)cnc4c3)c2)CC1 [Example 206, 4-({3-Chloro-4-[(1-methyl-1H-imidazol-2-yl)sulfanyl]phenyl}amino)-7-{4-[(4-methyl-I -piperazinyl)methyl]-2-pyridinyl}-3-quinolinecarbonitrile] | 208 to 210 °C
8 | CCN1CCN(c2ccc(-c3ccc4c(Nc5cc(OC)c(Cl)cc5Cl)c(C#N)cnc4c3)cn2)CC1 [Example 197, 4-(2,4-Dichloro-5-methoxyanilino)-7-[6-(4-ethyl-1-piperazinyl)-3-pyridinyl]-3-quinolinecarbonitrile] | 264 to 266 °C
9 | COC(=O)C1CCN(Cc2ccc(-c3ccc4c(Nc5ccc(Sc6nccn6C)c(Cl)c5)c(C#N)cnc4c3)nc2)CC1 [Example 107, Methyl 1-{[6-(4-{3-chloro-4-[(1-methyl-1H-imidazol-2-yl)sulfanyl]anilino}-3-cyano-7-quinolinyl)-3-pyridinyl]methyl}-4-piperidinecarboxylate] | 135 to 137 °C
10 | CCN1CCN(Cc2ccc(-c3ccc4c(Nc5ccc(Sc6nccn6C)c(Cl)c5)c(C#N)cnc4c3)cn2)CC1 [Example 220, 4-({3-Chloro-4-[(1-methyl-1H-imidazol-2-yl)sulfanyl]phenyl}amino)-7-1-{6-[(4-ethyl-1-piperazinyl)methyl]-3-pyridinyl}-3-quinolinecarbonitrile] | 192 to 195 °C
11 | Cn1ccnc1Sc1ccc(Nc2c(C#N)cnc3cc(-c4ccc(CN5CCC(O)CC5)cn4)ccc23)cc1Cl [Example 172, 4-{3-Chloro-4-[(1-methyl-1H-imidazol-2-yl)sulfanyl]anilino}-7-{5-[(4-hydroxy-1-piperidinyl)methyl]-2-pyridinyl}-3-quinolinecarbonitrile] | 194 to 196 °C
12 | CN1CCN(Cc2ccc(-c3ccc4c(Nc5ccc(Sc6nccn6C)c(Cl)c5)c(C#N)cnc4c3)cc2)CC1 [Example 135, 4-{3-chloro-4-[(1-methylimidazol-2-yl)sulfanyl]anilino}-7-{4-[(4-methyl-1-piperazinyl)methyl]phenyl}-3-quinolinecarbonitrile] | 202 to 203 °C
13 | Cc1cc(Nc2c(C#N)cnc3cc(-c4csc(CN5CCOCC5)c4)ccc23)ccc1OCc1ccccn1 [Example 95, 4-[3-Methyl-4-(2-pyridinylmethoxy)anilino]-7-[5-(4-morpholinylmethyl)-3-thienyl]-3-quinolinecarbonitrile] | 217 to 219 °C
14 | CCN1CCN(Cc2ccnc(-c3ccc4c(Nc5ccc(Sc6nccn6C)c(Cl)c5)c(C#N)cnc4c3)c2)CC1 [Example 205, 4-({3-Chloro-4-[(1-methyl-iH-imidazol-2-yl)sulfanyl]phenyl}amino)-7-{4-[(4-ethyl-1-piperazinyl)methyl]-2-pyridinyl}-3-quinolinecarbonitrile] | 150 to 153 °C
15 | Cn1ccnc1Sc1ccc(Nc2c(C#N)cnc3cc(-c4ccc(C=O)cc4)ccc23)cc1Cl [Example 62, 4-{3-chloro-4-[(1-methyl-1H-imidazol-2-yl)sulfanyl]anilino}-7-(4-formylphenyl)-3-quinolinecarbonitrile] | > 240 °C (dec.)
16 | COCCOc1ccc(-c2ccc3c(Nc4cc(OC)c(Cl)cc4Cl)c(C#N)cnc3c2)cc1 [Example 130, 4-(2,4-Dichloro-5-methoxyanilino)-7-{4-[(2-methoxy)ethoxy]phenyl}-3-quinolinecarbonitrile] | 205 to 207 °C

Row | SMILES | melting point
17 | N#Cc1cnc2cc(-c3ccc(-c4ccccn4)s3)ccc2c1Nc1ccc(Cl)cc1Cl [Example 18, 4-(2,4-dichloroanilino)-7-[5-(2-pyridinyl)-2-thienyl]-3-quinolinecarbonitrile] | 270 °C (dec.)
18 | Cn1ccnc1Sc1ccc(Nc2c(C#N)cnc3cc(-c4ccc(CN5CCOCC5)o4)ccc23)cc1Cl [Example 154, 4-{3-Chloro-4-[(1-methyl-1H-imidazol-2-yl)sulfanyl]anilino}-7-[5-(4-morpholinylmethyl)-2-furyl]-3-quinolinecarbonitrile] | 224 to 226 °C
19 | COc1cc(Nc2c(C#N)cnc3cc(-c4ccc(CN5CCC(C(=O)O)CC5)cn4)ccc23)c(Cl)cc1Cl [Example 177, 1-{6-[3-Cyano-4-(2,4-dichloro-5-methoxyphenylarino)-quinolin-7-yl]-pyridin-3-ylmethyl}-piperidine-4-carboxylic acid] | 150 °C (dec.)
20 | COc1cc(Nc2c(C#N)cnc3cc(-c4ccc(/C=C/CN5CCOCC5)s4)ccc23)c(Cl)cc1Cl [Example 21, 4-(2,4-Dichloro-5-methoxyanilino)-7-{5-[(E)-3-(4-morpholinyl)-1-propenyl]-2-thienyl}-3-quinolinecarbonitrile] | 145 °C
21 | Cn1ccnc1Sc1ccc(Nc2c(C#N)cnc3cc(-c4ccc(CN5CCN(CCO)CC5)s4)ccc23)cc1Cl [Example 161, 4-{3-Chloro-4-[(1-methyl-1H-imidazol-2-yl)sulfanyl]anilino}-7-(5-{[4-(2-hydroxyethyl)-1-piperazinyl]methyl}-2-thienyl)-3-quinolinecarbonitrile] | 145 to 147 °C
22 | Cn1ccnc1Sc1ccc(Nc2c(C#N)cnc3cc(-c4ccc(CN5CCOCC5)cc4)ccc23)cc1Cl [Example 63, 4-{3-chloro-4-[(1-methyl-1H-imidazol-2-yl)sulfanyl]anilino}-7-[4-(4-morpholinylmethyl)phenyl]-3-quinolinecarbonitrile] | 148 to 150 °C
23 | Cn1ccnc1Sc1ccc(Nc2c(C#N)cnc3cc(-c4ccc(N5CCN(CCO)CC5)nc4)ccc23)cc1Cl [Example 215, 4-({3-Chloro-4-[(1-methyl-1H-irnidazol-2-yl)sulfanyl]phenyl}amino)-7-{6-[4-(2-hydroxyethyl)-1-piperazinyl]-3-pyridinyl}-3-quinolinecarbonitrile] | 239 to 241 °C
24 | CCN1CCN(c2ccc(-c3ccc4c(Nc5ccc(Sc6nccn6C)c(Cl)c5)c(C#N)cnc4c3)nc2)CC1 [Example 108, 4-({3-Chloro-4-[(1-methyl-1H-imidazol-2-yl)sulfanyl]phenyl}amino)-7-[5-(4-ethyl-1-piperazinyl)-2-pyridinyl]-3-quinolinecarbonitrile] | 246 to 248 °C
25 | Cn1ccnc1Sc1ccc(Nc2c(C#N)cnc3cc(-c4ccc(CN5CCC(O)CC5)cc4)ccc23)cc1Cl [Example 134, 4-{3-Chloro-4-[(1-methyl-LH-imidazol-2-yl)sulfanyl]anilino}-7-{4-[(4-hydroxy-1-piperidinyl)methyl]phenyl}-3-quinolinecarbonitrile] | 230 to 232 °C
26 | Cn1ccnc1Sc1ccc(Nc2c(C#N)cnc3ccc(-c4ccc(N5CCOCC5)nc4)cc23)cc1Cl [Example 184, 4-({3-Chloro-4-[(1-methyl-1H-imidazol-2-yl)sulfanyl]phenyl}amino)-6-[6-(4-morpholinyl)-3-pyridinyl]-3-quinolinecarbonitrile] | 276 to 278 °C
27 | N#Cc1cnc2cc(-c3csc(C=O)c3)ccc2c1Nc1ccc(Cl)cc1Cl [Example 44, 4-(2,4-dichloroanilino)-7-(5-formyl-3-thienyl)-3-quinolinecarbonitrile] | 286 to 288 °C
28 | COc1cc(Nc2c(C#N)cnc3cc(-c4cccc(CN5CCOCC5)n4)ccc23)c(Cl)cc1Cl | 181 to 183 °C
29 | Cn1ccnc1Sc1ccc(Nc2c(C#N)cnc3cc(-c4ccc(CN5CCOCC5)nc4)ccc23)cc1Cl [Example 109, 4-({3-chloro-4-[(1-methylimidazol-2-yl)sulfanyl]phenyl}amino)-7-[6-(4-morpholinylmethyl)-3-pyridinyl]-3-quinolinecarbonitrile] | 233 to 235 °C
30 | CCOC(=O)C1CCN(c2ccc(-c3ccc4c(Nc5ccc(Sc6nccn6C)c(Cl)c5)c(C#N)cnc4c3)cn2)CC1 [Example 213, Ethyl 1-{5-[4-({3-chloro-4-[(1-methyl-iH-imidazol-2-yl)sulfanyl]phenyl}amino)-3-cyano-7-quinolinyl]-2-pyridinyl}-4-piperidinecarboxylate] | 253 to 255 °C
31 | COc1cc(Nc2c(C#N)cnc3cc(-c4cc(CN5CCOCC5)ccn4)ccc23)c(Cl)cc1Cl | 180 to 182 °C
